Our source for the IC50 values is patent publication US7205309B2, “Quinazoline derivatives” (Hoffmann-La Roche Inc., priority 2002, dated 2007).

By IC50 is commonly meant the midpoint of a concentration-inhibition curve.

For the assay, the target named is T1, recombinant mouse NPY5-receptor (mNPY5) (Mus musculus, UniProt O70342).
T1 construct: The full-length cDNA encoding the mouse NPY5 (mNPY5) receptor was amplified from mouse brain cDNA; expressed in transfected cells; membranes used
T1 sequence (O70342 1-466): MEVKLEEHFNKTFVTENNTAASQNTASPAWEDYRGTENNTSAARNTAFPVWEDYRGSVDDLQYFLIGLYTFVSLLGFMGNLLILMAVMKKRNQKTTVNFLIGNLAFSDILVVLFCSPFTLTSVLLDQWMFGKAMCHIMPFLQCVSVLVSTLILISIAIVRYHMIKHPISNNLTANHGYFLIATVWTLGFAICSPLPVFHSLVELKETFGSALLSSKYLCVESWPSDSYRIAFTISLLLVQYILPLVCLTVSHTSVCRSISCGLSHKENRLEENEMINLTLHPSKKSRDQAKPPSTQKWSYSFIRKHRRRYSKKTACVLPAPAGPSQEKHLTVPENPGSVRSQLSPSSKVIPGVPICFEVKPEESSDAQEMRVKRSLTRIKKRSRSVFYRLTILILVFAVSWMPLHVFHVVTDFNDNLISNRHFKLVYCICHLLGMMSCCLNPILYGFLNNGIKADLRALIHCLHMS
Briefly: Radioligand competition binding. The settings on record: membranes of HEK293 cells expressing mNPY5; 100 pM [125I]labeled peptide YY; 1 h at 22° C.; read-out: NPY5-R (mouse) IC50. An excerpt:
The full-length cDNA encoding the mouse NPY5 (mNPY5) receptor was amplified from mouse brain cDNA using specific primers, designed based on the published sequence, and Pfu DNA-Polymerase. The amplification product was subcloned into the mammalian expression vector pcDNA3 using Eco RI and XhoI restriction sites. Positive clones were sequenced and one clone, encoding the published sequence was selected for generation of stable cell clones.
Human embryonic kidney 293 (HEK293) cells were transfected with 10 μg mNPY5 DNA using the lipofectamine reagent. Two days after transfection, geneticin selection (1 mg/ml) was initiated and several stable clones were isolated. One clone was further used for pharmacological characterization.
Human embryonic kidney 293 cells (HEK293), expressing recombinant mouse NPY5-receptor (mNPY5) were broken by three freeze/thawing cycles in hypotonic Tris buffer (5 mM, pH 7.4, 1 mM MgCl2), homogenized and centrifuged at 72,000×g for 15 min. The pellet was washed twice with 75 mM Tris buffer, pH 7.4, containing 25 mM MgCl2 and 250 mM sucrose, 0.1 mM phenylmethylsulfonylfluoride and 0.1 mM 1,10-pheneanthrolin, resuspended in the same buffer and stored in aliquots at −80° C. Protein was determined according to the method of Lowry using bovine serum albumine (BSA) as a standard. […]

As to `Cc1nc(N2CCCC2)c2ccc(OCc3ccc(C#N)cc3)cc2n1` [Compound 3, 4-(2-methyl-4-pyrrolidin-1-yl-quinazolin-7-yloxymethyl)-benzonitrile], the IC50 worked out at 9 nM.

`Cc1nc(N2CCCC2)c2ccc(NCC(C)C)cc2n1` [Compound 24, isobutyl-(2-methyl-4-pyrrolidin-1-yl-quinazolin-7-yl)-amine]: the IC50 was 3 nM.
